Experimental data: US11000505B2 (priority 2010, dated 2021)
pKi: −log10 of the molar value. “And” between values parts separate entries of the source, which are not always exact repeats. Equal values may be shown once.

Assays:
pial artery [1] = settings: pig, in vivo
pial artery [2] = settings: pig, in vivo; remark: listed apart in the source
pial artery [3] = type: in vivo, piglets; settings: in vivo
pial artery [4] = type: in vivo, newborn pigs; settings: pig, in vivo
cloned human mu receptor = target: T1, cloned human mu receptor (Homo sapiens, UniProt P35372); assay: In-vitro affinity determination, [3H]DAMGO competition; type: binding
T1 construct: expressed in transfected cells; host or cells: HEK cells (NIMH PDSP)
T1 sequence (P35372 whole entry): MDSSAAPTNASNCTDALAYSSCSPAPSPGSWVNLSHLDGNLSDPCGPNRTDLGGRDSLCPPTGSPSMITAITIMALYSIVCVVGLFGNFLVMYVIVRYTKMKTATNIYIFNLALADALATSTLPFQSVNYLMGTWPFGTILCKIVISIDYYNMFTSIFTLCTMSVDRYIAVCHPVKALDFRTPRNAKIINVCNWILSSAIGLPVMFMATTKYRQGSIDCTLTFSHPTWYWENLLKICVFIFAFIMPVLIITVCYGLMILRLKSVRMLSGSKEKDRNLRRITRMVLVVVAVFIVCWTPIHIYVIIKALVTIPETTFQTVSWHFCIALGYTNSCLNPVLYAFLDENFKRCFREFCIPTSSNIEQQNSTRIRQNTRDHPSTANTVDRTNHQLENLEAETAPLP

[5] = target: T2, cloned rat kappa receptor (Rattus norvegicus, UniProt P34975); assay: biochemical; type: binding
T2 construct: expressed in transfected cells; host or cells: HEK cells (NIMH PDSP)
T2 sequence (P34975 whole entry): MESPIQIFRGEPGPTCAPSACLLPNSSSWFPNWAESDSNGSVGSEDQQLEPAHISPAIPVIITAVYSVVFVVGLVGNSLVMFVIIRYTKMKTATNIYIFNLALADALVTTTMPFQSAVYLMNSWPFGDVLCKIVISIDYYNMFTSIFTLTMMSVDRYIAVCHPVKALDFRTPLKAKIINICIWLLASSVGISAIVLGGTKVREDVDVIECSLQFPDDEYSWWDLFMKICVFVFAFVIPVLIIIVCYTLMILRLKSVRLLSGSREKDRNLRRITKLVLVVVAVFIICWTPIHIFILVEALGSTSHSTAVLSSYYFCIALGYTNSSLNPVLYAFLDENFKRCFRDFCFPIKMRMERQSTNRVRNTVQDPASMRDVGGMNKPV

[6] = tested on: mu, kappa and delta receptors; settings: competition binding assays; cited from earlier work
cAMP = cAMP in CSF by ELISA (Example 7); type: in vivo, newborn pigs
Excerpt: Newborn pigs (aged up to 6 days, 1.1-2.0 kg) of both genders were used for this study. Protocols were approved by the Institutional Animal Care and Use Committee of the University of Pennsylvania (Philadelphia). The newborn piglet model was used because its brain is gyrencepahalic and contains more white matter than grey matter, which is similar to that of humans. Furthermore, the head is large enough for the insertion of a cranial window and vascular visualization. Animals were induced with isoflurane (1-2 minimum alveolar concentration) and maintained with α-chloralose (80-100 mg/kg supplemented with 5 mg/kg·h, IV). Both femoral arteries were catheterized to monitor blood pressure and blood gas to maintain a constant carbon dioxide and pH. A catheter was inserted into the right femoral vein for medication administration. Animals were ventilated with room air after tracheal intubation. A heating pad was used to maintain the rectal temperature of animals at 37-39° C. A closed cranial window on the top of the head of the piglet was placed for direct pial artery visualization and diameter measurement. The closed cranial window consisted of three parts: a stainless steel ring, a circular glass cover slip, and three ports consisting of 17-gauge hypodermic needles attached to three precut holes in the stainless steel ring. CSF was collected through a cranial window port for cAMP measurement in some animals. […] Vascular diameter was measured from a video monitor that was connected to the camera with a video microscaler (VPA 550; For-A-Corp., Los Angeles, Calif.) by the investigator who administered the medication.
The cerebral cortical periarachnoid CSF samples were collected before and 10 min afterward administration of herkinorin and NTP to measure the cAMP level. […] Commercially available ELISA kits (Assay Designs, Ann Arbor, Mich.) were used to quantify cAMP concentrations.

CC1(C)Oc2ccc(C#N)cc2C(N2CCCC2=O)C1O (stereo not drawn) [cromakalim, reference compound]
dilation response in presence of glibenclamide (pial artery [1]): blocked the dilation in response to cromakalim

CC(C)NCC(O)c1ccc(O)c(O)c1 (stereo not drawn) [isoproterenol, reference compound]
dilation in presence of NTP (pial artery [2]): unchanged by either NTP or β-FNA
dilation in presence of β-FNA (pial artery [2]): unchanged by either NTP or β-FNA
pial artery response to the agent before and after hypoxia/ischemia (pial artery [3]): unchanged in all groups
pial artery response to the agent before and after HI (pial artery [4]): no change was observed
dilation response in presence of naloxone (pial artery [1]): unaffected
dilation response in presence of norbinaltorphimine (pial artery [1]): unaffected

COC(=O)[C@@H]1C[C@H](OC(=O)c2ccccc2)C(=O)[C@H]2[C@@]1(C)CC[C@H]1C(=O)O[C@H](c3ccoc3)C[C@]21C [herkinorin]
pKi (cloned human mu receptor; HEK cells over-expressing receptor): 7.35
binding affinity to mu receptor relative to kappa receptor (cloned human mu receptor; mu stronger than kappa): approximately 4 fold
concentration required to effectively dilate pial arteries (pial artery [2]): 0.1 nM
dilation in presence of NTP (pial artery [2]): totally abolished by norbinaltorphimine
dilation in presence of Rp-cAMPS (pial artery [2]): blunted herkinorin-mediated pial artery dilation
dilation in presence of β-FNA (pial artery [2]): not affected by β-FNA
pial artery diameter dilation (pial artery [2]): 10.6% and 17.8%
systemic blood pressure (pial artery [2]): without significant systemic blood pressure variation
pKi [5]: 6.74
selectivity for mu over delta receptors [6]: approximately 98 fold
selectivity for mu over kappa receptors [6]: approximately 8 fold
cAMP levels in the CSF (cAMP; 10 min after administration): significantly increased cAMP levels in the CSF
elevated cAMP levels with NTP (cAMP; pig, in vivo): blocked by NTP
elevated cAMP levels with β-FNA (cAMP; pig, in vivo): not affected after β-FNA administration

methionine enkephalin [reference compound]
dilation response in presence of naloxone (pial artery [1]): blocked the dilation effects
dilation response in presence of norbinaltorphimine (pial artery [1]): blocked the dilation effects

O=c1[nH]c2cc(C(F)(F)F)ccc2n1-c1cc(C(F)(F)F)ccc1O [NS1619, reference compound]
dilation response in presence of iberiotoxin (pial artery [1]): blocked the dilation effects of NS1619
